Measured values published in ChEMBL document CHEMBL5608247, “Development of a First-in-Class DNMT1/HDAC Inhibitor with Improved Therapeutic Potential and Potentiated Antitumor Immunity” (J Med Chem, 2024).

Columns and labels:
Histone deacetylase = assay: Inhibition of HDAC extracted from human HeLa cell nucleus using Boc-Lys(Ac)-AMC as substrate preincubated for 5 mins followed by substrate addition measured after 30 mins by fluorescence based assay; assay type: subcellular
MV4-11 [1] = assay: Antitumor activity against human MV4-11 cells xenografted in BALB/c nude mouse at 45 mg/kg, ip qd treated for 19 days relative to control; assay type: functional; details: MV4-11, 456 h, time 19 day, read-out: TGI
[2] = molecular target: T1, DNA (cytosine-5)-methyltransferase 1 (Homo sapiens, UniProt P26358); assay: Induction of thermal stabilization of N-terminal 6xHis-FLAG-tagged […] human DNMT1 (698 to 1616 residues) extracted from Sf9 cells assessed as change in melting temperature at 10 uM by SYPRO Orange dye based PTS assay (reference value: 0.0 degreeC); assay type: cell-based
Target sequence in this assay (P26358 whole entry, the tested form may be a part): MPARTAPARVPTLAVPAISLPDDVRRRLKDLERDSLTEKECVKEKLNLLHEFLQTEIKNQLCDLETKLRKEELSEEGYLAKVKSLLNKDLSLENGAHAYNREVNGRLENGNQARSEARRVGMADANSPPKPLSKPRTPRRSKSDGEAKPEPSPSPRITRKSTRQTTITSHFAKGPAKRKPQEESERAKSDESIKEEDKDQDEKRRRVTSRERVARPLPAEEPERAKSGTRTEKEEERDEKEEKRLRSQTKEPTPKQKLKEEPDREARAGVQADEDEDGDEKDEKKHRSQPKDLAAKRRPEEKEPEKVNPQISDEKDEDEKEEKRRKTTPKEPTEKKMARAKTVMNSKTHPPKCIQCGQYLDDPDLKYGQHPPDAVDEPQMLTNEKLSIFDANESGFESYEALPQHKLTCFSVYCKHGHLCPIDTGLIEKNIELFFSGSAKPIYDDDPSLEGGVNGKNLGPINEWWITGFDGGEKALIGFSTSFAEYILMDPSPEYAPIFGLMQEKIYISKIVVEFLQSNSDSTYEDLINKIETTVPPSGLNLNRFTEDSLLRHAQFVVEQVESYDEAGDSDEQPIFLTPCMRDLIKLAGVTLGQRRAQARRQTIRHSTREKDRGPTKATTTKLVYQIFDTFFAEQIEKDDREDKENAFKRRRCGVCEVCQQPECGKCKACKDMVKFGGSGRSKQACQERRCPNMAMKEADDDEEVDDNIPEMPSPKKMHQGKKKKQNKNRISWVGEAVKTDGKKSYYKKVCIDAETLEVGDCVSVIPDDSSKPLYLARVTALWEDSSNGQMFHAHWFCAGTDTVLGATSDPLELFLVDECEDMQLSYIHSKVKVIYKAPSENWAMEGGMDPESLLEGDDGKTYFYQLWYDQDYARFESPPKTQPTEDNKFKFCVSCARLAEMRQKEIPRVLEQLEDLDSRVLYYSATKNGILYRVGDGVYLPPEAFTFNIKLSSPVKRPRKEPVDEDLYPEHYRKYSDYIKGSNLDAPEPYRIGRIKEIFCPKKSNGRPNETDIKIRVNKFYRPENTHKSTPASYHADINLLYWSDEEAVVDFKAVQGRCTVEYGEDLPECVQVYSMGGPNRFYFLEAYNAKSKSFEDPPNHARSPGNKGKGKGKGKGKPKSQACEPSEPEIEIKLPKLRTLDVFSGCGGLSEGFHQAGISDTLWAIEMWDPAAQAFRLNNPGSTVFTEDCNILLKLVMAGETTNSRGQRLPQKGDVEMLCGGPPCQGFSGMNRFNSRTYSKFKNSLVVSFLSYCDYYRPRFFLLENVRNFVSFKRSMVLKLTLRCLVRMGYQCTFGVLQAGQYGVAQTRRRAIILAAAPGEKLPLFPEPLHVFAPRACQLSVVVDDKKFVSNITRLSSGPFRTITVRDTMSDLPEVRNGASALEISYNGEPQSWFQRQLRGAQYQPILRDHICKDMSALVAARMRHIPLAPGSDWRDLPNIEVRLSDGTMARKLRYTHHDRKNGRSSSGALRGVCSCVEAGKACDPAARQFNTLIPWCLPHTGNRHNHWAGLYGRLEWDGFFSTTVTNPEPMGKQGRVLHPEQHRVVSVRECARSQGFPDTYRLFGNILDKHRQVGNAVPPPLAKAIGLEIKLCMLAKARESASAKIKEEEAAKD

[3] = molecular target: T1, DNA (cytosine-5)-methyltransferase 1; assay: Inhibition of NLuc-fused DNMT1 expressed hypomorphic in human HCT-116 cells assessed as TSG repoter activation at 3 uM incubated for 72 hrs by Nano-Glo Luciferase assay; assay type: cell-based
Target sequence in this assay (P26358 whole entry, looked up, the tested form may be a part): as the sequence (P26358 whole entry, the tested form may be a part) above

[4] = molecular target: T2, DNA (cytosine-5)-methyltransferase 3B (Homo sapiens, UniProt Q9UBC3); assay: Inhibition of DNMT3B (unknown origin)
MV4-11 [5] = assay: Antiproliferative activity against human MV4-11 cells incubated for 96 hrs by CCK8 assay; assay type: functional, cell-based; details: MV4-11, 96 h
[6] = molecular target: T3, Protein deacetylase HDAC6 (Homo sapiens, UniProt Q9UBN7); assay: Inhibition of HDAC6 (unknown origin)
T3 sequence (Q9UBN7 whole entry): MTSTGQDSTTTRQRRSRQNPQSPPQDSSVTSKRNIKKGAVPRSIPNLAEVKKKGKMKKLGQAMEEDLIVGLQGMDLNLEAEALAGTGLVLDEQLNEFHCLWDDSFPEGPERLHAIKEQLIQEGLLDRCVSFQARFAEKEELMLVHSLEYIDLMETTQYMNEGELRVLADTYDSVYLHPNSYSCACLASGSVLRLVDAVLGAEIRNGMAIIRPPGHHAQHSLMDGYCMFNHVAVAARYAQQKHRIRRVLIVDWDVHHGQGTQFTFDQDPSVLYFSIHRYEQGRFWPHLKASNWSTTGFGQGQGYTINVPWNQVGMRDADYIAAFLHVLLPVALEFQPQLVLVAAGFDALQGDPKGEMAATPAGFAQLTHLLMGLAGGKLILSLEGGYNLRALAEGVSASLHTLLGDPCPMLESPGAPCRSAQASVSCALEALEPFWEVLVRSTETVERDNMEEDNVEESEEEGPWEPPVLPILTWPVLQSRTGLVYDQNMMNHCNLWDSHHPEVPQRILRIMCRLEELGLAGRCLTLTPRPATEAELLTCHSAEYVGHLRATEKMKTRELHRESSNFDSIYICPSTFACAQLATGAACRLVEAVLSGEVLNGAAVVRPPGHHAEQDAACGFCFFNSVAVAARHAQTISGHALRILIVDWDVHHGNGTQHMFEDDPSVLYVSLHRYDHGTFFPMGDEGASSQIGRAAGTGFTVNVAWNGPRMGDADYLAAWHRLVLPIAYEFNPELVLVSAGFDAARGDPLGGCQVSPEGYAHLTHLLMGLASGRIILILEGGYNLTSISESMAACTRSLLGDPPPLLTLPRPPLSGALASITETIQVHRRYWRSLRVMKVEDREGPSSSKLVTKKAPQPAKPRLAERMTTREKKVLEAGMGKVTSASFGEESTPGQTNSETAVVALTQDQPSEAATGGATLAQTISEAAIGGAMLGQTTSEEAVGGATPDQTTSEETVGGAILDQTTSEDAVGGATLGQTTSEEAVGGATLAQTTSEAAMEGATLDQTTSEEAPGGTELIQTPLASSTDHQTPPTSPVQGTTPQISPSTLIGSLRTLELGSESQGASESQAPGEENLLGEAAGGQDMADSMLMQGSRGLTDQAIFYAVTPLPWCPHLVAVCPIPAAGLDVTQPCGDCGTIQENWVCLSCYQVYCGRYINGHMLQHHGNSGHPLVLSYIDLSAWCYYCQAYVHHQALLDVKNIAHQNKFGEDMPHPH

Histone deacetylase 1 = Histone deacetylase 1 (Homo sapiens, UniProt Q13547); assay: Inhibition of HDAC1 (unknown origin)
[7] = molecular target: T1, DNA (cytosine-5)-methyltransferase 1; assay: Inhibition of DNMT1 (unknown origin) at 100 uM relative to control
Target sequence in this assay (P26358 whole entry, the tested form may be a part): as the sequence (P26358 whole entry, the tested form may be a part) above

[8] = molecular target: T2, DNA (cytosine-5)-methyltransferase 3B; assay: Inhibition of DNMT3B (unknown origin) at 100 uM relative to control
[9] = molecular target: DNA (cytosine-5)-methyltransferase 3A (Homo sapiens) (UniProt Q9Y6K1); assay: Inhibition of DNMT3A (unknown origin) at 100 uM relative to control
Chain of DNA (cytosine-5)-methyltransferase 3A (Homo sapiens) (Q9Y6K1 whole entry, looked up): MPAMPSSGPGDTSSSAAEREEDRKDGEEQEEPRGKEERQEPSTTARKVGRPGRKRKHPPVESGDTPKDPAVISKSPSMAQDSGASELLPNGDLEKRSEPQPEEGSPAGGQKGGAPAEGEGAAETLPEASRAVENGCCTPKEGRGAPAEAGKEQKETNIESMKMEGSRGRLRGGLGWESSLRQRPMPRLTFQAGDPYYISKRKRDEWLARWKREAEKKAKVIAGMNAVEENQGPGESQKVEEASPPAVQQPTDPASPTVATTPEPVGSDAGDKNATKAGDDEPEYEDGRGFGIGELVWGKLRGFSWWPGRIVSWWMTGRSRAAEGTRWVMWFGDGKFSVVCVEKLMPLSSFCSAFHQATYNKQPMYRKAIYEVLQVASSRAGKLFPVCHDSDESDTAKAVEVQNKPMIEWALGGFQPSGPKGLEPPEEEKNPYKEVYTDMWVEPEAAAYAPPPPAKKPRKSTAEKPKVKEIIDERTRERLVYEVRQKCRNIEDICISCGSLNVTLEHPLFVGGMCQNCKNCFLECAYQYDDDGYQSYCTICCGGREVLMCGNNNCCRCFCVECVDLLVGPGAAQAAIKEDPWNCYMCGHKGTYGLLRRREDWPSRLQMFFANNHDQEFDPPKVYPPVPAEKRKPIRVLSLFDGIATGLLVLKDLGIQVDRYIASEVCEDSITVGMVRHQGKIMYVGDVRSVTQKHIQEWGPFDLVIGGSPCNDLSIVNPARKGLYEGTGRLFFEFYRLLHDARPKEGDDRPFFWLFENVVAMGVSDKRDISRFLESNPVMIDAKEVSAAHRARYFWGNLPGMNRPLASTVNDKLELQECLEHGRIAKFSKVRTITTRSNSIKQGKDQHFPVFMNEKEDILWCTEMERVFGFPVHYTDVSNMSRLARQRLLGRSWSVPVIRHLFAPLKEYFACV

Chain of Histone deacetylase 1 (Q13547 whole entry): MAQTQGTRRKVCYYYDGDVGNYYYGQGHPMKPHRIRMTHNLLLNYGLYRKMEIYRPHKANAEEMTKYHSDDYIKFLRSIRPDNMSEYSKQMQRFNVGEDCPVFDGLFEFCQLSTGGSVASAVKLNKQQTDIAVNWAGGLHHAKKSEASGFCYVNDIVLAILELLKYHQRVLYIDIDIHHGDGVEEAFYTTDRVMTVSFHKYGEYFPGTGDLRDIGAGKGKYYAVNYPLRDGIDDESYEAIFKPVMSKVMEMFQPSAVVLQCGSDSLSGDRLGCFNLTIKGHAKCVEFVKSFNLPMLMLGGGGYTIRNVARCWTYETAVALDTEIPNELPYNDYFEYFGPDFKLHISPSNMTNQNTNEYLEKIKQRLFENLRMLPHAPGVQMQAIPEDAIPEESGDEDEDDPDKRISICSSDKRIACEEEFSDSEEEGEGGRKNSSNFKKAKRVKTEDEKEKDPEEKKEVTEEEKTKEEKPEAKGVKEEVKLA

IC50 (Histone deacetylase)	SMILES	also measured
80 nM	CCc1c(C#N)c(SC(C(N)=O)c2ccccc2)nc(N2CCC(NCc3ccc(C(=O)NCc4ccc(/C=C/C(=O)NO)cc4)cc3)CC2)c1C#N (stereo unspecified)	–
60 nM	CCc1c(C#N)c(SC(C(N)=O)c2ccccc2)nc(N2CCN(c3ncc(C(=O)NO)cn3)CC2)c1C#N (stereo unspecified)	–
1070 nM	CCc1c(C#N)c(SC(C(N)=O)c2ccccc2)nc(N2CCC(NC(=O)CCCC(=O)NO)CC2)c1C#N (stereo unspecified)	–
1300 nM	CCc1c(C#N)c(SC(C(N)=O)c2ccccc2)nc(N2CCC(NC(=O)CCC(=O)Nc3ccc(C(=O)NO)cc3)CC2)c1C#N (stereo unspecified)	–
> 20000 nM	CCc1c(C#N)c(SC(C(N)=O)c2ccccc2)nc(N2CCC(NCc3ccc(C(=O)Nc4ccccc4N)cc3)CC2)c1C#N (stereo unspecified)	–
330 nM	CCc1c(C#N)c(SC(C(N)=O)c2ccccc2)nc(N2CCC(NC(=O)CCCC(=O)NCc3ccc(C(=O)NO)cc3)CC2)c1C#N (stereo unspecified)	–
210 nM	CCc1c(C#N)c(SC(C(N)=O)c2ccccc2)nc(N2CCC(NC(=O)CCCCCC(=O)NO)CC2)c1C#N (stereo unspecified)	–
570 nM	CCc1c(C#N)c(SC(C(N)=O)c2ccccc2)nc(N2CCC(NC(=O)CCCC(=O)Nc3ccc(C(=O)NO)cc3)CC2)c1C#N (stereo unspecified)	–
> 5000 nM	CCc1c(C#N)c(SC(C(N)=O)c2ccccc2)nc(N2CCC(NC(=O)CCCCC(=O)NO)CC2)c1C#N (stereo unspecified)	–
300 nM	CCc1c(C#N)c(SC(C(N)=O)c2ccccc2)nc(N2CCC(NC(=O)CCCCCCC(=O)NO)CC2)c1C#N (stereo unspecified)	–
1160 nM	CCc1c(C#N)c(SC(C(N)=O)c2ccccc2)nc(N2CCC(NC(=O)CCCCCCCC(=O)NO)CC2)c1C#N (stereo unspecified)	–
280 nM	CCc1c(C#N)c(SC(C(N)=O)c2ccccc2)nc(N2CCC(NC(=O)CCCCC(=O)Nc3ccc(C(=O)NO)cc3)CC2)c1C#N (stereo unspecified)	–
230 nM	CCc1c(C#N)c(SC(C(N)=O)c2ccccc2)nc(N2CCC(NC(=O)CCC(=O)NCc3ccc(C(=O)NO)cc3)CC2)c1C#N (stereo unspecified)	–
–	CCc1c(C#N)c(SC(C(N)=O)c2ccccc2)nc(N2CCC(CNCc3ccc(/C=C/C(=O)NO)cc3)CC2)c1C#N (stereo unspecified)	inhibition in vivo at 45 mg/kg (MV4-11 [1]): 95%; ΔTm [2]: 11 °C; EC50 [3]: 1090 nM
> 5000 nM	CCc1c(C#N)c(SC(C(N)=O)c2ccccc2)nc(N2CCC(NC(=O)CCC(=O)NO)CC2)c1C#N (stereo unspecified)	–
250 nM	CCc1c(C#N)c(SC(C(N)=O)c2ccccc2)nc(N2CCC(NCc3ccc(C(=O)NCc4ccc(C(=O)NO)cc4)cc3)CC2)c1C#N (stereo unspecified)	–

IC50 (Histone deacetylase)	SMILES	also measured
140 nM	CCc1c(C#N)c(SC(C(N)=O)c2ccccc2)nc(N2CCN(Cc3ccc(/C=C/C(=O)NO)cc3)CC2)c1C#N (stereo unspecified)	–
100 nM	CCc1c(C#N)c(CN(C)C2CCN(c3ncc(C(=O)NO)cn3)CC2)nc(SC(C(N)=O)c2ccccc2)c1C#N (stereo unspecified)	–
> 20000 nM	CCc1c(C#N)c(SC(C(N)=O)c2ccccc2)nc(N2CCC(NC(=O)c3ccc(C(=O)Nc4ccccc4N)cc3)CC2)c1C#N (stereo unspecified)	–
160 nM	CCc1c(C#N)c(SC(C(N)=O)c2ccccc2)nc(N(C)CCNCc2ccc(/C=C/C(=O)NO)cc2)c1C#N (stereo unspecified)	–
> 5000 nM	CCc1c(C#N)c(SC(C(N)=O)c2ccccc2)nc(N2CCC(NCc3ccc(C(=O)NO)cc3)CC2)c1C#N (stereo unspecified)	–
140 nM	CCc1c(C#N)c(SC(C(N)=O)c2ccccc2)nc(N2CCC(CNc3ncc(C(=O)NO)cn3)CC2)c1C#N (stereo unspecified)	–
–	O=C(NO)C1CCN(CC(O)COC(Cn2c3ccccc3c3ccccc32)Cn2c3ccccc3c3ccccc32)CC1 (stereo unspecified)	IC50 [4]: 1320 nM
230 nM	CCc1c(C#N)c(SC(C(N)=O)c2ccccc2)nc(N2CCC(NC(=O)CCC(=O)Nc3ccc(/C=C/C(=O)NO)cc3)CC2)c1C#N (stereo unspecified)	–
> 20000 nM	CCc1c(C#N)c(SC(C(N)=O)c2ccccc2)nc(N2CCC(NC(=O)Cc3ccc(C(=O)Nc4ccccc4N)cc3)CC2)c1C#N (stereo unspecified)	–
> 20000 nM	CCc1c(C#N)c(SC(C(N)=O)c2ccccc2)nc(N2CCC(NC(=O)CCCC(=O)Nc3ccccc3N)CC2)c1C#N (stereo unspecified)	–
–	CCc1c(C#N)c(S[C@H](C(N)=O)c2ccccc2)nc(N2CCC(CNCc3ccc(/C=C/C(=O)NO)cc3)CC2)c1C#N	ΔTm [2]: 9 °C; EC50 [3]: 1180 nM
130 nM	CCc1c(C#N)c(SC(C(N)=O)c2ccccc2)nc(N2CCC(NCc3ccc(/C=C/C(=O)NO)cc3)CC2)c1C#N (stereo unspecified)	inhibition in vivo at 45 mg/kg (MV4-11 [1]): 80%; IC50 (MV4-11 [5]): 660 nM
870 nM	CCc1c(C#N)c(SC(C(N)=O)c2ccccc2)nc(N2CCC(NC(=O)c3ccc(C(=O)NO)cc3)CC2)c1C#N (stereo unspecified)	–
190 nM	CCc1c(C#N)c(SC(C(N)=O)c2ccccc2)nc(N2CCC(Nc3ncc(C(=O)NO)cn3)CC2)c1C#N (stereo unspecified)	–
230 nM	CCc1c(C#N)c(SC(C(N)=O)c2ccccc2)nc(N(C)C2CCN(c3ncc(C(=O)NO)cn3)CC2)c1C#N (stereo unspecified)	IC50 [6]: 17.4 nM; IC50 (Histone deacetylase 1): 56.8 nM; inhibition [7]: 69.9%; inhibition [8]: 48.5%; inhibition [9]: 23.4%
